# Experimental data as given in patent US9242999B2, “Cephem compound having pyridinium group” (priority 2011, dated 2016).
# Tests used:
# Assay type in all cases: cell-based
# E. cloacae NCTC13464 = test: MIC, CLSI broth microdilution, cation-adjusted iso-sensitest broth with human apo transferrin (Test Example 2); conditions: Enterobacter cloacae, Table 5, CTX-M group 9 ESBL producing strain, inoculum 5×10^5 cfu/mL, read-out: Minimum Inhibitory Concentration (MIC) E. cloacae NCTC 13464
# Description: (§1) Measurement of Minimum Inhibitory Concentration (MIC: μg/mL) was conducted according to CLSI (Clinical and Laboratory Standards Institute) method, and the amount of bacteria for inoculation was 5×10^5 cfu/mL, and cation-adjusted iso-sensitest broth containing human apo transferrin was used as a test medium, and the experiment was conducted using broth microdilution method. The bacteria used are listed below.
# E. coli ATCCBAA-196 = test: as above; conditions: Escherichia coli, ATCCBAA196, Table 5, TEM-10 ESBL producing strain, inoculum 5×10^5 cfu/mL, read-out: Minimum Inhibitory Concentration (MIC) E. coli ATCC BAA-196
# Description: as §1
# E. coli ATCCBAA-200 [1] = test: as above; conditions: Escherichia coli, ATCCBAA200, Table 5, SHV-4 ESBL producing strain, inoculum 5×10^5 cfu/mL, read-out: Minimum Inhibitory Concentration (MIC) E. coli ATCC BAA-200
# Description: as §1
# A. baumannii SR27323 = test: MIC, CLSI broth microdilution, cation-adjusted Mueller Hinton broth with human apo-transferrin (Test Example 1); conditions: inoculum 5×10^5 cfu/mL; for MIC: Acinetobacter baumannii, SR27323, Table 2, OXA-23, OXA-58 carbapenemase producing strain, read-out: Minimum Inhibitory Concentration (MIC) A. baumannii SR27323; for Minimum Inhibitory Concentration (MIC) A. baumannii SR27323: Table 2, OXA-23, OXA-58 carbapenemase producing strain
# Description: as §1, with “Mueller Hinton” for “iso-sensitest”, “apo-transferrin” for “apo transferrin”
# E. coli ATCCBAA-199 = test: as above; conditions: inoculum 5×10^5 cfu/mL; for MIC: Escherichia coli, ATCCBAA199, Table 2, SHV-3 ESBL producing strain, read-out: Minimum Inhibitory Concentration (MIC) E. coli ATCC BAA-199
# Description: as §1, with “Mueller Hinton” for “iso-sensitest”, “apo-transferrin” for “apo transferrin”
# E. coli ATCCBAA-200 [2] = test: as above; conditions: inoculum 5×10^5 cfu/mL; for MIC: Escherichia coli, ATCCBAA200, Table 2, SHV-4 ESBL producing strain, read-out: Minimum Inhibitory Concentration (MIC) E. coli ATCC BAA-200
# Description: as §1, with “Mueller Hinton” for “iso-sensitest”, “apo-transferrin” for “apo transferrin”
# [3] = tested on: K. pneumoniae ATCCBAA-1705; test: as above; conditions: inoculum 5×10^5 cfu/mL; for MIC: Klebsiella pneumoniae, ATCCBAA1705, Table 2, KPC-2 carbapenemase producing strain, read-out: Minimum Inhibitory Concentration (MIC) K. pneumoniae ATCC BAA-1705
# Description: as §1, with “Mueller Hinton” for “iso-sensitest”, “apo-transferrin” for “apo transferrin”
# P. aeruginosa SR24 = test: as above; conditions: no enzyme, inoculum 5×10^5 cfu/mL; for MIC: Pseudomonas aeruginosa, SR24, Table 2, ceftazidime resistance strain, read-out: Minimum Inhibitory Concentration (MIC) P. aeruginosa SR24; for Minimum Inhibitory Concentration (MIC) P. aeruginosa SR24: Table 2, ceftazidime resistance strain
# Description: as §1, with “Mueller Hinton” for “iso-sensitest”, “apo-transferrin” for “apo transferrin”
# P. aeruginosa SR27060 = test: as above; conditions: inoculum 5×10^5 cfu/mL; for MIC: Pseudomonas aeruginosa, SR27060, Table 2, IMP-1 MBL producing strain (carbapenem resistance strain), read-out: Minimum Inhibitory Concentration (MIC) P. aeruginosa SR27060
# Description: as §1, with “Mueller Hinton” for “iso-sensitest”, “apo-transferrin” for “apo transferrin”
SMILES,MIC (E. cloacae NCTC13464),MIC (E. coli ATCCBAA-196),MIC (E. coli ATCCBAA-200 [1]),MIC (A. baumannii SR27323),MIC (E. coli ATCCBAA-199),MIC (E. coli ATCCBAA-200 [2]),MIC [3],MIC (P. aeruginosa SR24),MIC (P. aeruginosa SR27060),Minimum Inhibitory Concentration (MIC) A. baumannii SR27323 (A. baumannii SR27323),"Minimum Inhibitory Concentration (MIC) E. coli ATCC BAA-199 (E. coli ATCCBAA-199; Table 2, SHV-3 ESBL producing strain)","Minimum Inhibitory Concentration (MIC) E. coli ATCC BAA-200 (E. coli ATCCBAA-200 [2]; Table 2, SHV-4 ESBL producing strain)","Minimum Inhibitory Concentration (MIC) K. pneumoniae ATCC BAA-1705 ([3]; Table 2, KPC-2 carbapenemase producing strain)",Minimum Inhibitory Concentration (MIC) P. aeruginosa SR24 (P. aeruginosa SR24),"Minimum Inhibitory Concentration (MIC) P. aeruginosa SR27060 (P. aeruginosa SR27060; Table 2, IMP-1 MBL producing strain (carbapenem resistance strain))"
CC(C)(O/N=C(\C(=O)N[C@@H]1C(=O)N2C(c3nnn[n-]3)=C(CSc3cc[n+](CC(=O)c4ccc(O)c(O)c4Cl)cc3)CS[C@H]12)c1nc(N)sc1Cl)C(=O)[O-].[Na+] [Compound I-15],0.125 µg/mL,≤ 0.031 µg/mL,≤ 0.031 µg/mL,,,,,,,,,,,,
"CC(C)(O/N=C(\C(=O)N[C@@H]1C(=O)N2C(C(=O)[O-])=C(CSc3cc[n+](CC(=O)c4ccc(O)c(O)c4)cc3)CS[C@H]12)c1csc(N)n1)C(=O)O [Comparative Compound 1, reference compound]",,,,0.5 µg/mL,1 µg/mL,2 µg/mL,0.25 µg/mL,0.25 µg/mL,> 32 µg/mL,,,,,,
C[C@H](O/N=C(\C(=O)N[C@@H]1C(=O)N2C(c3nnn[n-]3)=C(CSc3cc[n+](CC(=O)c4ccc(O)c(O)c4)cc3)CS[C@H]12)c1nc(N)sc1Cl)C(=O)O [Compound I-5],,,,0.5 µg/mL,≤ 0.031 µg/mL,0.063 µg/mL,≤ 0.031 µg/mL,0.125 µg/mL,1 µg/mL,,,,,,
CC(C)(O/N=C(\C(=O)N[C@@H]1C(=O)N2C(c3nnn[n-]3)=C(CSc3cc[n+](-c4ccc(O)c(O)c4Cl)cc3)CS[C@H]12)c1nsc(N)n1)C(=O)[O-].[Na+] [Compound I-17],0.063 µg/mL,0.125 µg/mL,0.125 µg/mL,,,,,,,,,,,,
CC(C)(O/N=C(\C(=O)N[C@@H]1C(=O)N2C(c3nnn[n-]3)=C(CSc3cc[n+](Cc4ccc(O)c(O)c4)cc3)CS[C@H]12)c1csc(N)n1)C(=O)O [Compound I-1],,,,,,,,,,1 µg/mL,≦0.031 μg/ml,≦0.031 μg/ml,≦0.031 μg/ml,0.25 µg/mL,1. μg/ml
CC(C)(O/N=C(\C(=O)N[C@@H]1C(=O)N2C(c3nnn[n-]3)=C(CSc3cc[n+](CC(=O)c4ccc(O)c(O)c4)cc3)CS[C@H]12)c1nsc(N)n1)C(=O)O [Compound I-4],,,,1 µg/mL,0.125 µg/mL,0.25 µg/mL,≤ 0.031 µg/mL,0.125 µg/mL,2 µg/mL,,,,,,
CC(C)(O/N=C(\C(=O)N[C@@H]1C(=O)N2C(c3nnn[n-]3)=C(CSc3cc[n+](-c4ccc(O)c(O)c4)cc3)CS[C@H]12)c1csc(N)n1)C(=O)O [Compound I-6],,,,0.125 µg/mL,≤ 0.031 µg/mL,≤ 0.031 µg/mL,≤ 0.031 µg/mL,0.063 µg/mL,,,,,,,
C[C@H](O/N=C(\C(=O)N[C@@H]1C(=O)N2C(c3nnn[n-]3)=C(CSc3cc[n+](CC(=O)c4ccc(O)c(O)c4)cc3)CO[C@H]12)c1nc(N)sc1Cl)C(=O)O [Compound I-8],,,,2 µg/mL,0.063 µg/mL,0.25 µg/mL,≤ 0.031 µg/mL,0.25 µg/mL,16 µg/mL,,,,,,
CC(C)(O/N=C(\C(=O)N[C@@H]1C(=O)N2C(c3nnn[n-]3)=C(CSc3cc[n+](CC(=O)c4ccc(O)c(O)c4)cc3)C[S+]([O-])[C@H]12)c1csc(N)n1)C(=O)O (some centres unmarked) [Compound I-7],,,,2 µg/mL,≤ 0.031 µg/mL,≤ 0.031 µg/mL,≤ 0.031 µg/mL,0.5 µg/mL,4 µg/mL,,,,,,
CC(C)(O/N=C(\C(=O)N[C@@H]1C(=O)N2C(c3nnn[n-]3)=C(CSc3cc[n+](Cc4ccc(O)c(O)c4)cc3)CS[C@H]12)c1csc(N)n1)C(=O)O [Compound I-2],,,,,≤ 0.031 µg/mL,≤ 0.031 µg/mL,≤ 0.031 µg/mL,,0.5 µg/mL,≦0.031 μg/ml,,,,0.063 µg/mL,
